Experimental data taken from paper PMC2213565 (The Journal of General Physiology, 2008).
Like-named read-outs stand apart in the source and are kept apart here.

Tests used:
[1] = molecular target: T1, 5-HT3A (Mus musculus, UniProt P23979); experiment: Whole cell patch clamp of HEK293T cells transiently expressing 5-HT3A; type: cell-based; conditions: HEK293T cells expressing 5-HT3A
T1 sequence (P23979 24-489): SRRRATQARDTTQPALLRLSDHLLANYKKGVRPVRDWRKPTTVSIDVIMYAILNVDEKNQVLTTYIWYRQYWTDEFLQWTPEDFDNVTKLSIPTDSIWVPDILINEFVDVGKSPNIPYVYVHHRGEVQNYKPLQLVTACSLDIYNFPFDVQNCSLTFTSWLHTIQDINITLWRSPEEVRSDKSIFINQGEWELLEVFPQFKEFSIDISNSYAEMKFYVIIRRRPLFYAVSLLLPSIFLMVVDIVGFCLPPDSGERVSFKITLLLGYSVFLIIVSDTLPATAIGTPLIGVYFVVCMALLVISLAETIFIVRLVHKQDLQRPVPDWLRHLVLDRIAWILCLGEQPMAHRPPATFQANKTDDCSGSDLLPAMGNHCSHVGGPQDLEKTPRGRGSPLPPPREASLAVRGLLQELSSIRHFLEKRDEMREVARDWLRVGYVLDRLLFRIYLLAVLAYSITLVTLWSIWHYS

[2] = molecular target: T2, 5-HT3A-glvM3M4 (Mus musculus, UniProt P23979); experiment: Whole cell patch clamp of HEK293T cells transiently expressing 5-HT3A-glvM3M4; type: cell-based
T2 sequence (P23979 24-326 limits assumed): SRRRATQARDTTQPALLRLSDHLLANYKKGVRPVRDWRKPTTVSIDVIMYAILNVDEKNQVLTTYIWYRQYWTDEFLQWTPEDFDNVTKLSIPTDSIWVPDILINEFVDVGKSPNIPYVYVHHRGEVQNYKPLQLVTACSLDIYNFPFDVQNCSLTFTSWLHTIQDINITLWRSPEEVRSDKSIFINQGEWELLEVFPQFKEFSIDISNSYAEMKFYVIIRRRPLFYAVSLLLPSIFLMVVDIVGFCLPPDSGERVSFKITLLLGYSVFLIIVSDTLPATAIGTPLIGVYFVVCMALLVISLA

[3] = molecular target: T1, 5-HT3A; experiment: Two-electrode voltage clamp of Xenopus oocytes expressing 5-HT3A wild type; type: cell-based
[4] = molecular target: 5-HT3A-glvM3M4 (Mus musculus, UniProt P23979); type: cell-based
[5] = molecular target: mouse 5-HT3A receptors; conditions: competitive antagonist; ref Costall et al., 1987; cited from earlier work

NCCc1c[nH]c2ccc(O)cc12 [5-HT, 5-hydroxytryptamine]
whole cell currents evoked ([1]; 5-HT 1 μM): 1 to 5 nA | whole cell currents evoked ([2]; HEK293T cells expressing 5-HT3A-glvM3M4, 5-HT 1 μM): 1 to 5 nA

Cc1cccc(C)c1NC(=O)C[N+](C)(C)C [QX-222]
inhibition of 5-HT EC70 currents ([3]; 5-HT3A-wt, QX-222 20 μM, n = 6): 80 ± 4% | inhibition of 5-HT EC70 currents ([4]; 5-HT3A-glvM3M4, QX-222 20 μM, n = 6): 79 ± 2%

COc1ccc([C@@H]2Sc3ccccc3N(CCN(C)C)C(=O)[C@@H]2OC(C)=O)cc1 [diltiazem]
IC50 [3]: 16 ± 1 µM | IC50 [4]: 12 ± 3 µM

Cc1nccn1CC1CCc2c(c3ccccc3n2C)C1=O (centres unmarked) [ondansetron]
inhibition of 5-HT currents ([3]; 5-HT3A, EC30 concentration of 5-HT with ondansetron at 1/3 of the 5-HT concentration, n = 3): 98.2 ± 0.4% | inhibition of 5-HT currents ([4]; 5-HT3A-glvM3M4, EC30 concentration of 5-HT with ondansetron at 1/3 of the 5-HT concentration, n = 4): 98.8 ± 0.4% | inhibition of whole cell currents evoked by 1 μM 5-HT ([1]; 100 nM ondansetron): totally inhibited | inhibition of whole cell currents evoked by 1 μM 5-HT ([2]; HEK293T cells expressing 5-HT3A-glvM3M4, 100 nM ondansetron): totally inhibited | IC50 for inhibition of mouse 5-HT3A receptors [5]: high picomolar

picrotoxin
IC50 ([3]; read-out: picrotoxin IC50, 5-HT3A-wt, coapplied with 5-HT EC30 concentration, n = 3): 60 ± 10 µM | fold lower IC50 in 5-HT3A-glvM3M4 than in wild type ([4]; picrotoxin IC50, 5-HT3A-glvM3M4 versus 5-HT3A-wt): 10 fold | IC50 ([4]; read-out: picrotoxin IC50, 5-HT3A-glvM3M4, coapplied with 5-HT EC30 concentration, n = 6): 6.8 ± 1.1 µM
